Experimental findings from patent US9511052B2, “Mineralocorticoid receptor antagonists” (Merck Sharp & Dohme Corp., priority 2012, dated 2016) are described below.

Molecules are shown by their SMILES.

The test has as its target T1, full-length human Mineralocorticoid Receptor (MR) (Homo sapiens, UniProt P08235).
T1 construct: host or cells: PathHunter CHO-K1 MR cells
T1 sequence (P08235 1-984): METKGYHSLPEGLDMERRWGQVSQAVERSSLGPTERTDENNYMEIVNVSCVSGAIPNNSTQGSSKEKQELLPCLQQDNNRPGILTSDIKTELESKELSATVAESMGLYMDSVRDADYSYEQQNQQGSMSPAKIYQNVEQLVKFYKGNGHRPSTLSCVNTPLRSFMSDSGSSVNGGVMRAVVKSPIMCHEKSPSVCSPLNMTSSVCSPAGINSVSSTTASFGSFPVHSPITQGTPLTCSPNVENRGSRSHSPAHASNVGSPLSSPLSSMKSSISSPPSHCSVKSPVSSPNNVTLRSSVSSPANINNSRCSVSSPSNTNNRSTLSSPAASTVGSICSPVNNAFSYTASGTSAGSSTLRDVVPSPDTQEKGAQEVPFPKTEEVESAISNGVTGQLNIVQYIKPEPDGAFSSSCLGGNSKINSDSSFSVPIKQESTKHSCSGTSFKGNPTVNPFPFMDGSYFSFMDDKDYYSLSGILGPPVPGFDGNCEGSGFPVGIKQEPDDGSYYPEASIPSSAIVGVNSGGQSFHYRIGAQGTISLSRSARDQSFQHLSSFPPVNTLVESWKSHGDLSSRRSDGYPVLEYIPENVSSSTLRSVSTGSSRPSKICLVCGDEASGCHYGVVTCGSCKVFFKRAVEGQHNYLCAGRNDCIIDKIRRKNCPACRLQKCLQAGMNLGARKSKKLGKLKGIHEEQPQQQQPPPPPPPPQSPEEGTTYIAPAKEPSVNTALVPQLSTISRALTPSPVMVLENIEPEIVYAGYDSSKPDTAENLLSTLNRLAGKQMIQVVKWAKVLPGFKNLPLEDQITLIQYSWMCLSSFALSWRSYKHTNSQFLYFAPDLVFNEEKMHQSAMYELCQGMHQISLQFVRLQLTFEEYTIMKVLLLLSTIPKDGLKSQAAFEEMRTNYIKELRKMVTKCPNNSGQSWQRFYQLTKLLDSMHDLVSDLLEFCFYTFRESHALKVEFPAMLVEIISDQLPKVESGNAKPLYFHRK
The test is described as follows: human MR NH Pro assay (PathHunter Protein:Protein interaction assay), MR antagonism. It counts as cell-based. The settings on record: IP = inflection point of the dose-response curve; CHO-K1 cells overexpressing human MR, aldosterone about 0.3 nM to about 1 nM, 6 hours at 37° C. An excerpt: The activity of the compounds of the present invention regarding mineralocorticoid receptor antagonism can be evaluated using the following assay.
Assessment of MR Potency in HMR NH Pro Assay
The human MR NH Pro assay is a commercially available PathHunter™ Protein:Protein interaction assay (DiscoveRx; http://www.discoverx.com/nhrs/prod-nhrs.php) that measures the ability of compounds to antagonize full-length human Mineralocorticoid Receptor (MR) binding to a coactivator peptide.
Stock solution was prepared at 10 μM in DMSO and stored at −20° C. for assay, dilute in assay media to 1.8 or 6 nM (6× of final concentration=about 0.3 nM to about 1.0 nM)
5. Cell line: PathHunter CHO-K1 MR cells Cat #93-0456C2, Lot No: 09B0913, from operation liquid nitrogen stock.
6. Control Antagonist: Spironolactone: Sigma #S-3378 and Eplerenone Sigma #107724-20-9 (10 mM stock concentration also prepared in DMSO and stored at −20° C.).
1. Cells are grown in F12+FBS+Hygromycin+pen/strep+Genetin
2. Cells are collected with 0.05% trypsin and the cell suspension is spun and resuspended in a volume of F12+1.5% CD-FBS and counted.
3. The cells concentration was adjusted to 4×10^5 cells/mL.
4. Cells were (25 μL/well) added to the wells of a 384 well plate.
5. The plate was then incubated at 37° C. over night in a humidified incubator with 5% CO2.
6. Test compounds were titrated starting at 4.4 mM, 10-point titration in 1:3 dilution.
Protocol for 384 well plate format: 6 hr treatment:
1. 10K exponentially growing cells/well (25 μL) were resuspended in assay media and plated into each well using the Multidrop (Thermo Electron) (use white wall, clear bottom assay plates (Costar #3570) and incubated overnight at 37° C., 5% CO2.
2. 0.25 μL 120× test compound (final DMSO concentration should be <1%) was added to each well n=2, 10 point titrations starting at 36.7 μM final concentration.
4. 5 μL of assay media was added to all wells in column 23 and 24.
5. Cells were then incubated for 6 hrs at 37° C., 5% CO2.
6. 15 μL 3× DiscoveRx detection reagent was then added to each well.
7. Plates were incubated for 1 hour at room temperature in the dark.
8. Plates were read on Envision (PerkinElmer) luminesence plate reader and analyzed using ADA.
Molecule `CCC(C(N)=O)(c1ccc(S(F)(F)(F)(F)F)cc1)n1ncc2c(NS(C)(=O)=O)cccc21` (racemic) [Compound 27, 2-{4-[(methylsulfonyl)amino]-1H-indazol-1-yl}-2-[4-(pentafluoro-λ^6-sulfanyl)phenyl]butanamide] showed an IC50 of 3610 nM. To `CCC(c1ccc(Br)cc1)(C(C)O)n1ncc2c(NS(C)(=O)=O)cccc21` (single isomer, unassigned) [Compound 1, N-(1-(3-(4-bromophenyl)-2-hydroxypentan-3-yl)-1H-indazol-4-yl) methanesulfonamide] belongs 10 nM; to `CCC(c1ccc(Br)cc1)(C(C)O)n1ncc2c(NS(C)(=O)=O)cccc21` (single isomer, unassigned) [Compound 3, N-(1-(3-(4-bromophenyl)-2-hydroxypentan-3-yl)-1H-indazol-4-yl) methanesulfonamide], 733 nM.

For `CCC(c1ccc(Br)cc1)(C(C)O)n1ncc2c(NS(C)(=O)=O)cccc21` (single isomer, unassigned) [Compound 4, N-(1-(3-(4-bromophenyl)-2-hydroxypentan-3-yl)-1H-indazol-4-yl) methanesulfonamide], it took 728 nM to reach half-maximal inhibition (IC50). `CCC(O)C(CC)(c1ccc(Br)cc1)n1ncc2c(NS(C)(=O)=O)cccc21` (single isomer, unassigned) [Compound 5, N-(1-(3-(4-bromophenyl)-4-hydroxyhexan-3-yl)-1H-indazol-4-yl)methanesulfonamide] displayed an IC50 of 8 nM. `CCC(O)C(CC)(c1ccc(Br)cc1)n1ncc2c(NS(C)(=O)=O)cccc21` (single isomer, unassigned) [Compound 6, N-(1-(3-(4-bromophenyl)-4-hydroxyhexan-3-yl)-1H-indazol-4-yl)methanesulfonamide] gave a half-maximal inhibitory concentration (IC50) of 3 nM.

The molecule `CCC(O)C(CC)(c1ccc(Br)cc1)n1ncc2c(NS(C)(=O)=O)cccc21` (single isomer, unassigned) [Compound 7, N-(1-(3-(4-bromophenyl)-4-hydroxyhexan-3-yl)-1H-indazol-4-yl)methanesulfonamide] gave an IC50 of 1990 nM. To `CCC(O)C(CC)(c1ccc(Br)cc1)n1ncc2c(NS(C)(=O)=O)cccc21` (single isomer, unassigned) [Compound 8, N-(1-(3-(4-bromophenyl)-4-hydroxyhexan-3-yl)-1H-indazol-4-yl)methanesulfonamide] belongs 1190 nM. In the case of `CCC(O)C(CC)(c1ccc(C(F)(F)F)cc1)n1ncc2c(NS(C)(=O)=O)cccc21` (single isomer, unassigned) [Compound 10, N-(1-(4-hydroxy-3-(4-(trifluoromethyl)phenyl)hexan-3-yl)-1H-indazol-4-yl)methanesulfonamide], the IC50 turned out to be 5 nM. `CCC(CO)(c1ccc(C(F)(F)F)cc1)n1ncc2c(NS(C)(=O)=O)cccc21` (single isomer, unassigned) [Compound 11, N-(1-(1-hydroxy-2-(4-(trifluoromethyl)phenyl)butan-2-yl)-1H-indazol-4-yl)methanesulfonamide] gave an IC50 of 60 nM. To `CCC(C(N)=O)(c1ccc(C(F)(F)F)cc1)n1ncc2c(NS(C)(=O)=O)cccc21` (single isomer, unassigned) [Compound 12, 2-(4-(methylsulfonamido)-1H-indazol-1-yl)-2-(4-(trifluoromethyl)phenyl) butanamide] belongs 139 nM; to `CCC(c1ccc(C#N)cc1)(C(C)O)n1ncc2c(NS(C)(=O)=O)cccc21` (single isomer, unassigned) [Compound 13, N-(1-(-3-(4-cyanophenyl)-2-hydroxypentan-3-yl)-1H-indazol-4-yl)methanesulfonamide], 225 nM. To `CCC(O)C(CC)(c1ccc(C#N)cc1)n1ncc2c(NS(C)(=O)=O)cccc21` (single isomer, unassigned) [Compound 15, N-(1-(3-(4-cyanophenyl)-4-hydroxyhexan-3-yl)-1H-indazol-4-yl)methanesulfonamide] belongs 56 nM. To `CCC(O)C(CC)(c1ccc(C#N)cc1)n1ncc2c(NS(C)(=O)=O)cccc21` (single isomer, unassigned) [Compound 16, N-(1-(3-(4-cyanophenyl)-4-hydroxyhexan-3-yl)-1H-indazol-4-yl)methanesulfonamide] belongs 48 nM; to `CCC(O)C(CC)(c1ccc(C(F)(F)F)cc1)n1ncc2c(NS(C)(=O)=O)cc(F)cc21` (single isomer, unassigned) [Compound 17, N-(6-fluoro-1-(4-hydroxy-3-(4-(trifluoromethyl)phenyl)hexan-3-yl)-1H-indazol-4-yl)methanesulfonamide], 21 nM; to `CCC(O)C(CC)(c1ccc(C(F)(F)F)cc1)n1ncc2c(NS(C)(=O)=O)cc(F)cc21` (single isomer, unassigned) [Compound 18, N-(6-fluoro-1-(4-hydroxy-3-(4-(trifluoromethyl)phenyl)hexan-3-yl)-1H-indazol-4-yl)methanesulfonamide], 9 nM. The molecule `CCC(O)C(CC)(c1ccc(C#N)cc1)n1ncc2c(NS(C)(=O)=O)cc(F)cc21` (single isomer, unassigned) [Compound 19] yielded an IC50 of 136 nM. On to `CCC(O)C(CC)(c1ccc(C#N)cc1)n1ncc2c(NS(C)(=O)=O)cc(F)cc21` (single isomer, unassigned) [Compound 20, N-(1-(3-(4-cyanophenyl)-4-hydroxyhexan-3-yl)-6-fluoro-1H-indazol-4-yl)methanesulfonamide], for which the concentration for half-maximal inhibition (IC50) was found to be 138 nM. To `CCC(c1ccc(S(F)(F)(F)(F)F)cc1)(C(C)O)n1ncc2c(NS(C)(=O)=O)cccc21` (single isomer, unassigned) [Compound 21, N-(1-{2-hydroxy-3-[4-(pentafluoro-λ^6-sulfanyl)phenyl]pentan-3-yl}-1H-indazol-4-yl)methanesulfonamide] belongs 333 nM; to `CCC(c1ccc(S(F)(F)(F)(F)F)cc1)(C(C)O)n1ncc2c(NS(C)(=O)=O)cccc21` (single isomer, unassigned) [Compound 22, N-(1-{2-hydroxy-3-[4-(pentafluoro-λ^6-sulfanyl)phenyl]pentan-3-yl}-1H-indazol-4-yl)methanesulfonamide], 3810 nM. In turn, `CCC(c1ccc(S(F)(F)(F)(F)F)cc1)(C(C)O)n1ncc2c(NS(C)(=O)=O)cccc21` (single isomer, unassigned) [Compound 23, N-(1-{2-hydroxy-3-[4-(pentafluoro-λ^6-sulfanyl)phenyl]pentan-3-yl}-1H-indazol-4-yl)methanesulfonamide] gave an IC50 of 4740 nM. To `CCC(c1ccc(S(F)(F)(F)(F)F)cc1)(C(C)O)n1ncc2c(NS(C)(=O)=O)cccc21` (single isomer, unassigned) [Compound 24, N-(1-{2-hydroxy-3-[4-(pentafluoro-λ^6-sulfanyl)phenyl]pentan-3-yl}-1H-indazol-4-yl)methanesulfonamide] belongs 152 nM.
